In one series the test system is cells. Conditions: free FdUMP; cited from earlier work.
Series [1] in a line: Pharmacokinetics of platinum in orthotopic CRC mice. The class given is in vivo, mouse. Conditions: single i.v. injection, one-compartmental model. The text has this: (§1) The orthotopic CT26-FL3 colorectal tumor model was established as previously described^31.
For a further series, the system named is CT26-FL3 cells. In words: MTT cytotoxicity assay. The class given is cell-based, mouse. For orientation: Tetrazolium assays rely on reduction of a dye to a coloured formazan, in cell work by metabolically active cells.
Series [2] can be described thus: Tissue distribution of Nano-Folox in orthotopic CRC mice (IVIS, ICP-MS). The class given is in vivo, mouse. The settings on record: 8 h after i.v. administration, 1.5 mg/kg platinum. How it is done: as §1
In addition, — 0.05% (wt) of lipophilic carbocyanine DiD (ThermoFisher) was used to formulate the DiD-labeled Nano-Folox (1.5 mg/kg platinum). Following 8 h i.v. injection of DiD-labeled Nano-Folox, major organs and tumors were collected and analyzed using the IVIS® Kinetics Optical System, with the excitation wavelength at 640 nm and the emission wavelength at 670 nm. The concentration of platinum in major organs and tumors was also measured using ICP-MS^8.

The test system of the next series is CT26 cells. Put plainly: MTT cytotoxicity assay, CT26. The settings on record: Mus musculus; CT26, 24 h incubation. The class given is cell-based. How it is done: (§2) MTT assay was applied to determine in vitro cytotoxicity. CT26 and Hepa1-6 cells (1×10^4/well) were cultured within 96-well plates, respectively. Following one day incubation, 5-Fu, Nano-dUMP and Nano-FdUMP were added to cells for 24 h. […] IC50 was calculated using the GraphPad Prism software.

In another series the test system is Hepa1-6 cells. In words: MTT cytotoxicity assay, Hepa1-6. The class given is cell-based. The settings on record: Mus musculus; Hepa1-6, 24 h incubation. How it is done: as §2
Series [3] can be described thus: Aqueous solubility of stabilized nanoprecipitates. The class given is physicochemical. The settings on record: DOPA-stabilized nanoprecipitates.
Series [4] is described as follows: Particle size, zeta potential and morphology of Nano-Folox (Malvern Nano-ZS, TEM). The settings on record: FIG. 2A. How it is done:
The measurements of particle size and zeta potential of Nano-Folox were performed using the Malvern Nano-ZS (Malvern Instruments, UK)^59. The morphology of nanoprecipitates and Nano-Folox was analyzed using transmission electron microscopy (TEM). Briefly, 5 μL Nano-Folox were added on 400-mesh carbon-filmed copper grids (Agar Scientific) for 2 min. The samples were stained with 2% (w/w) uranyl acetate before the analysis using the JEM1230 (JEOL) TEM. Alternatively, the morphology of the core was analyzed without the negative staining.

As a reminder, the IC50 is the concentration needed to halve the response being measured.

Experimental for CT26-FL3 cells: Cytotoxicity of Nano-Folox was estimated using the MTT assay with 3-(4,5-Dimethylthiazol-2-yl)-2,5-diphenyltetrazolium bromide^60. 10,000 CT26-FL3 cells per well were seeded in 96-well plates and incubated for one day. After incubation, cells were added with OxP and Nano-Folox for 24 h under normal growth conditions. Subsequently, cells were added with 20 μL MTT reagent (5 mg/mL in PBS) and incubated for 4 h at 37° C. 150 μL DMSO were used to dissolve the purple formazan products. The results were measured at 570 nm using a microplate reader. The 50% cell growth inhibition (IC50) was estimated using the GraphPad Prism software.

Consider `O=c1[nH]c(=O)n([C@H]2C[C@H](O)[C@@H](COP(=O)(O)O)O2)cc1F` [FdUMP, 5-Fluoro-2′-deoxyuridine 5′-monophosphate], for which the permeability into cells result in the series on cells is “impermeable into cells”.

On to `O=C1[O][Pt]2([NH][C@@H]3CCCC[C@H]3[NH]2)[O]C1=O` [OxP, oxaliplatin], for which the “half-life (t1/2) of platinum” value in series [1] was ~8 min. For the same compound, the IC50 with CT26-FL3 cells (24 h incubation, read-out: IC50 (50% cell growth inhibition)) was determined as 24 µM. In series [2], the “liver uptake of platinum” value is on record as ~35 % ID/g and the “tumor accumulation of platinum” value is reported as ~15 % ID/g.

On to `Nc1nc2c(c(=O)[nH]1)N(C=O)C(CNc1ccc(C(=O)N[C@@H](CCC(=O)O)C(=O)O)cc1)CN2` (stereo partly shown) [FnA, folinic acid], for which the “proliferation of CT26-FL3 cells” value with CT26-FL3 cells (FnA alone, data not shown) was “not inhibited”.

Regarding `O=c1[nH]cc(F)c(=O)[nH]1` [5-Fu, 5-fluorouracil], the IC50 in the series on CT26 cells and with Hepa1-6 cells was ~70 µM in each case.

`Nc1nc(=O)c2c([nH]1)NCC(CNc1ccc(C(=O)NC3CCC(=O)[O][Pt]4([NH]C5CCCCC5[NH]4)[O]C3=O)cc1)N2C=O` (stereo not shown) [Pt(DACH).FnA precipitate, dihydrate(1,2-diaminocyclohexane)platinum(II)-folinic acid]: the solubility in water entry in series [3] is listed as “poorly soluble in water”. Besides, the “particle size of the DOPA-stabilized precipitate” value in series [4] is ~100 nm.

The values above are taken from US20220378936A1, “DELIVERY SYSTEM COMPLEXES COMPRISING A PRECIPITATE OF AN ACTIVE AGENT AND METHODS OF USE” (THE UNIVERSITY OF NORTH CAROLINA AT CHAPEL HILL, priority 2019, published 2022).
